What was measured:
[1] = tested on: neuraminidase (NA) of A(H1N1)pdm09 viruses; format: biochemical, influenza A(H1N1)pdm09 virus
[2] = tested on: neuraminidase (NA) of B/Yamagata-lineage viruses; format: biochemical, influenza B/Yamagata-lineage virus
[3] = tested on: neuraminidase (NA) of A(H1N1)pdm09 viruses; conditions: cited from earlier work

SMILES	IC50 fold-change of viruses exhibiting RI/HRI [1]	inhibition phenotype in NAI assay (NI/RI/HRI) [2]	effect on inhibition (IC50 fold) [3]
CCC(CC)[C@H](NC(C)=O)[C@@H]1[C@H](O)[C@@H](C(=O)O)C[C@H]1N=C(N)N [Peramivir, peramivir]	10- to 6270 fold	borderline RI	
CC(=O)N[C@H]1[C@H]([C@H](O)[C@H](O)CO)OC(C(=O)O)=C[C@@H]1N=C(N)N [Zanamivir, zanamivir]		borderline RI	
CCOC(=O)C1=C[C@@H](OC(CC)CC)[C@H](NC(C)=O)[C@@H](N)C1 [Oseltamivir, oseltamivir]			5- to 8 fold

— PMC5667636 (Antiviral Research, 2017)
